The source made the active and inactive calls. The rule behind the calls is not given here.
Experiments:
[1] = molecular target: T1, Protein cereblon/Tyrosine-protein kinase BTK (Homo sapiens, UniProt Q06187+Q96SW2); test: PROTAC activity at CRBN/BTK in human JeKo-1 cells assessed as BTK degradation at 100 nM incubated for 24 hrs by Western blot analysis relative to control; type: cell-based
Target sequence in this assay (Q06187 2-659 limits assumed): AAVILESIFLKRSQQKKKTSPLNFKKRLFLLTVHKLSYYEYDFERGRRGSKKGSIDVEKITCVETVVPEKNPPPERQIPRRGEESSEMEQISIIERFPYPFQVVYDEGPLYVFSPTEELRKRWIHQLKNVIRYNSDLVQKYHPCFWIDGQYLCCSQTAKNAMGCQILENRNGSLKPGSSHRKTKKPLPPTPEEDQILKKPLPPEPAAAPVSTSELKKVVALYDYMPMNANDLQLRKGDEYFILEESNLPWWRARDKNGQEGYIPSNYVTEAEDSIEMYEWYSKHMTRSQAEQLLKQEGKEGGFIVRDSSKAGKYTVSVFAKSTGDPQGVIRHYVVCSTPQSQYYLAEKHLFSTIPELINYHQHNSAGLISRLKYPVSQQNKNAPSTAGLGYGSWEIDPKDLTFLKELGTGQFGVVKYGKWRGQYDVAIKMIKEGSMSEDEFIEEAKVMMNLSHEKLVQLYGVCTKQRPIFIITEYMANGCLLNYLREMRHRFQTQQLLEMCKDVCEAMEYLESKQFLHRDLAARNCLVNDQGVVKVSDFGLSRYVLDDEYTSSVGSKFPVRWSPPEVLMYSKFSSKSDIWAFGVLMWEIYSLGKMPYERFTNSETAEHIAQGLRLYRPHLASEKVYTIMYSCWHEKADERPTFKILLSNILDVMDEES
Target sequence in this assay (Q96SW2 whole entry partner): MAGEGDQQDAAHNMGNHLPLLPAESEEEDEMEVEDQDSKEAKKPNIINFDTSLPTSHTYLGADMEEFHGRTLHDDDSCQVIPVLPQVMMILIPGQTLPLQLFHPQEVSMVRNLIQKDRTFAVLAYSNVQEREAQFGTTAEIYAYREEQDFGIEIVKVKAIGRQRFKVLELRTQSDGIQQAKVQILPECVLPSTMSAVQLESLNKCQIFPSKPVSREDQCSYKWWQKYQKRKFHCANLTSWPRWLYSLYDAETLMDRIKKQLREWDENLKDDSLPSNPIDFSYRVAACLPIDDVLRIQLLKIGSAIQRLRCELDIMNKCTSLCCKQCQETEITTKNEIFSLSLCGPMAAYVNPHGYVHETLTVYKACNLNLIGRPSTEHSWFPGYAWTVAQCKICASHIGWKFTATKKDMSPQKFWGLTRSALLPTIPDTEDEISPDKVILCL

[2] = molecular target: T1, Protein cereblon/Tyrosine-protein kinase BTK; test: PROTAC activity at CRBN/BTK in human JeKo-1 cells assessed as BTK degradation at 10 nM incubated for 24 hrs by Western blot analysis relative to control; type: cell-based
Target sequence in this assay (Q06187 2-659 limits assumed): as the sequence (Q06187 2-659 limits assumed) above
Target sequence in this assay (Q96SW2 whole entry partner): as the sequence (Q96SW2 whole entry partner) above

JeKo-1 [3] = test: Effect on IKZF3 level in human JeKo-1 cells at 0.1 to 1000 nM incubated for 8 hrs by Western blot analysis; type: functional, cell-based; settings: dose 0.1-1000 nM
[4] = molecular target: T1, Protein cereblon/Tyrosine-protein kinase BTK; test: PROTAC activity at CRBN/BTK in human JeKo-1 cells assessed as BTK degradation at 100 nM by Western blot analysis; type: cell-based; settings: time 1-24 hrs
Target sequence in this assay (Q06187 2-659 limits assumed): as the sequence (Q06187 2-659 limits assumed) above
Target sequence in this assay (Q96SW2 whole entry partner): as the sequence (Q96SW2 whole entry partner) above

[5] = Microsomal stability in human liver microsomes assessed as intrinsic clearance in microsomes measured up to 60 mins in presence of NADPH by LC-MS/MS analysis; type: ADME, Microsome; settings: read-out: CLH
[6] = molecular target: T1, Protein cereblon/Tyrosine-protein kinase BTK; test: PROTAC activity at CRBN/BTK in human JeKo-1 cells assessed as BTK degradation incubated for 8 hrs by Western blot analysis; type: cell-based; settings: dose 0.1-1000 nM
Target sequence in this assay (Q06187 2-659 limits assumed): as the sequence (Q06187 2-659 limits assumed) above
Target sequence in this assay (Q96SW2 whole entry partner): as the sequence (Q96SW2 whole entry partner) above

[7] = molecular target: T1, Protein cereblon/Tyrosine-protein kinase BTK; test: PROTAC activity at CRBN/BTK in human JeKo-1 cells assessed as BTK degradation at 10 nM incubated for 24 hrs in presence of bortezomib by Western blot analysis; type: cell-based
Target sequence in this assay (Q06187 2-659 limits assumed): as the sequence (Q06187 2-659 limits assumed) above
Target sequence in this assay (Q96SW2 whole entry partner): as the sequence (Q96SW2 whole entry partner) above

[8] = molecular target: T1, Protein cereblon/Tyrosine-protein kinase BTK; test: PROTAC activity at CRBN/BTK in human JeKo-1 cells assessed as BTK degradation incubated for 24 hrs by Western blot analysis; type: cell-based; settings: for Activity: dose 0.01-1000 nM
[9] = Microsomal stability in human liver microsomes assessed as compound remaining measured up to 60 mins by LC-MS/MS analysis; type: ADME, Microsome; settings: read-out: Stability
JeKo-1 [10] = test: Effect on IKZF1 level in human JeKo-1 cells at 0.1 to 1000 nM incubated for 8 hrs by Western blot analysis; type: functional, cell-based; settings: dose 0.1-1000 nM
[11] = molecular target: T1, Protein cereblon/Tyrosine-protein kinase BTK; test: PROTAC activity at CRBN/BTK in human JeKo-1 cells assessed as BTK degradation at 10 nM incubated for 24 hrs in presence of MLN-4924 by Western blot analysis; type: cell-based
Target sequence in this assay (Q06187 2-659 limits assumed): as the sequence (Q06187 2-659 limits assumed) above
Target sequence in this assay (Q96SW2 whole entry partner): as the sequence (Q96SW2 whole entry partner) above

[12] = Microsomal stability in human liver microsomes assessed as half life measured up to 60 mins in presence of NADPH by LC-MS/MS analysis; type: ADME, Microsome
[13] = molecular target: T1, Protein cereblon/Tyrosine-protein kinase BTK; test: PROTAC activity at CRBN/BTK in human JeKo-1 cells assessed as BTK degradation at 30 nM incubated for 24 hrs by Western blot analysis relative to control; type: cell-based
[14] = Microsomal stability in human liver microsomes assessed as compound remaining measured up to 60 mins in presence of NADPH by LC-MS/MS analysis; type: ADME, Microsome; settings: read-out: Stability
[15] = molecular target: T1, Protein cereblon/Tyrosine-protein kinase BTK; test: PROTAC activity at CRBN/BTK in human TMD8 cells assessed as BTK degradation measured after 24 hrs by Western blot analysis; type: cell-based; settings: for Activity: dose 0.1-1000 nM
[16] = tested on: Protein cereblon/Tyrosine-protein kinase BTK (Homo sapiens), Q06187+Q96SW2 [C481S]; test: (§1) PROTAC activity at CRBN/BTK C481S mutant (unknown origin) expressed in human TMD8 cells assessed as BTK degradation measured after 24 hrs by Western blot analysis; type: cell-based; settings: dose 0.1-1000 nM
[17] = molecular target: Protein cereblon/Tyrosine-protein kinase BTK (Homo sapiens, UniProt Q06187+Q96SW2, C481S); test: as §1; type: cell-based
Protein cereblon/Tyrosine-protein kinase BTK (Homo sapiens, UniProt Q06187+Q96SW2, C481S), sequence (Q06187 whole entry, looked up, stated change not applied): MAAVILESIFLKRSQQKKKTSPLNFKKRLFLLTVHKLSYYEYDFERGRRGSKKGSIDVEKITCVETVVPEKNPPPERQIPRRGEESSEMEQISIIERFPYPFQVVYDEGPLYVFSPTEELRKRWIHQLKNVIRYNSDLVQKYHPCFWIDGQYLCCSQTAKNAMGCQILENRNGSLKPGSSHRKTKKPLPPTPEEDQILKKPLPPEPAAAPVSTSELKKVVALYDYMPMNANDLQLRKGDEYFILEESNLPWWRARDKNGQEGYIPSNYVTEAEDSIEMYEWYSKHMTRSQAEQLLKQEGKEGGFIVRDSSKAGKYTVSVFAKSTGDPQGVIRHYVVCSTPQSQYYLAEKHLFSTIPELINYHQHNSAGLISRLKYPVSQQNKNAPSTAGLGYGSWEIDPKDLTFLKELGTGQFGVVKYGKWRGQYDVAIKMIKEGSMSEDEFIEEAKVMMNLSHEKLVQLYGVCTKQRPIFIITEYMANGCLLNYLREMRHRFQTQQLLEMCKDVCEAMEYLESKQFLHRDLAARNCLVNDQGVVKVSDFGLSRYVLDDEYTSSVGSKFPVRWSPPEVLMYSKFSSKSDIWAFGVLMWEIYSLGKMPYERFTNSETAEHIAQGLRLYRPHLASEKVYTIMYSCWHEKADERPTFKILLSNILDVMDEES
Protein cereblon/Tyrosine-protein kinase BTK (Homo sapiens, UniProt Q06187+Q96SW2, C481S), sequence (Q96SW2 whole entry, looked up, stated change not applied): as the sequence (Q96SW2 whole entry partner) above

[18] = molecular target: T1, Protein cereblon/Tyrosine-protein kinase BTK; test: PROTAC activity at CRBN/BTK in human JeKo-1 cells assessed as hook effect up to 1 uM incubated for 24 hrs by Western blot analysis; type: cell-based
JeKo-1 [19] = test: Effect on GSPT1 level in human JeKo-1 cells at 0.1 to 1000 nM incubated for 8 hrs by Western blot analysis; type: functional, cell-based; settings: dose 0.1-1000 nM
[20] = Microsomal stability in human liver microsomes assessed as intrinsic clearance in liver measured up to 60 mins in presence of NADPH by LC-MS/MS analysis; type: ADME, Microsome; settings: read-out: CLH
[21] = Cytotoxicity against human TMD8 cells harboring wild-type BTK assessed as inhibition of cell viability incubated for 5 days by CCK8 assay; type: functional, cell-based; settings: TMD8, 120 h
[22] = Cytotoxicity against human TMD8 cells harboring BTK C481S mutant assessed as inhibition of cell viability incubated for 5 days by CCK8 assay; type: functional, cell-based; settings: TMD8, 120 h
[23] = molecular target: T1, Protein cereblon/Tyrosine-protein kinase BTK; test: PROTAC activity at CRBN/BTK in human JeKo-1 cells assessed as BTK degradation at 100 nM measured after 4 hrs by Western blot analysis relative to control; type: cell-based
JeKo-1 [24] = test: Downregulation of CSK level in human JeKo-1 cells at 100 nM incubated for 4 hrs by Label-free MS proteomics analysis; type: functional, cell-based
[25] = Drug concentration in plasma of mouse at 30 mg/kg, ip measured after 24 hrs by LC-MS/MS analysis; type: ADME, organism-based
[26] = Toxicity in mouse at 30 mg/kg, ip measured for 0.083 to 24 hrs by LC-MS/MS analysis; type: organism-based; settings: in vivo, time 0.083-24 hrs
JeKo-1 [27] = test: Downregulation of BLK level in human JeKo-1 cells at 100 nM incubated for 4 hrs by Label-free MS proteomics analysis; type: functional, cell-based
[28] = AUC (0 to t) in mouse at 2 mg/kg, iv measured for 0.083 to 24 hrs by LC-MS/MS analysis; type: ADME, organism-based; settings: in vivo, time 0.083-24 hrs
[29] = Cmax in mouse at 30 mg/kg, ip measured after 0.083 hrs by LC-MS/MS analysis; type: ADME, organism-based; settings: in vivo
[30] = molecular target: T1, Protein cereblon/Tyrosine-protein kinase BTK; test: PROTAC activity at CRBN/BTK in human JeKo-1 cells assessed as BTK degradation at 100 nM incubated for 4 hrs by Label-free MS proteomics analysis; type: cell-based
[31] = Toxicity in mouse at 2 mg/kg, iv measured for 0.083 to 24 hrs by LC-MS/MS analysis; type: organism-based; settings: in vivo, time 0.083-24 hrs

O=C1CCC(c2ccc(N3CCC(CCN4CCC(CC(=O)N[C@H]5CC[C@H](Nc6ncnc7[nH]cc(C(=O)c8ccc(Oc9ccccc9)cc8)c67)C5)CC4)CC3)cc2)C(=O)N1 (stereo partly drawn)
Activity [1]: 85% | Activity [2]: 78% | Activity (JeKo-1 [3]): inactive | Activity [4]: Time-dependent-effect; Compound Exhibited Significant Reduction At 1 Hr | microsomal CLint [5]: < 9.6 µL/min/mg | Activity [6]: Dose-dependent-effect | Activity [7]: inactive | DC50 [8]: 1.7 nM | Activity [8]: Dose-dependent-effect | remaining at 1 h [9]: 99.8% | Activity (JeKo-1 [10]): inactive | Activity [11]: inactive | half-life [12]: > 2.42 h | Activity [13]: 81% | remaining at 1 h [14]: 92.2% | DC50 [15]: 3.4 nM | Activity [15]: Dose-dependent-effect | Activity [16]: Dose-dependent-effect | DC50 [17]: 5.6 nM | Activity [18]: inactive | Activity (JeKo-1 [19]): inactive | CLint scaled [20]: < 8.6 mL/min/kg | IC50 [21]: 24.6 nM | IC50 [22]: 26.5 nM | Activity [23]: 100%

O=C1CCC(c2ccc(N3CCC(CCN4CCC(CC(=O)N[C@H]5CC[C@H](Nc6ncnc7[nH]cc(C(=O)c8ccc(Oc9ccccc9)cc8)c67)C5)CC4)CC3)nc2)C(=O)N1 (stereo partly drawn)
Activity [1]: 91% | Activity (JeKo-1 [24]): Active | Activity [2]: 89% | Activity (JeKo-1 [3]): inactive | Activity [4]: Time-dependent-effect; Compound Exhibited Significant Reduction At 1 Hr | microsomal CLint [5]: < 9.6 µL/min/mg | Activity [6]: Dose-dependent-effect | concentration at 24 h [25]: > 0.1 µM | Activity [26]: Non-toxic | Activity [7]: inactive | DC50 [8]: 2.9 nM | Activity [8]: Dose-dependent-effect | Activity (JeKo-1 [27]): Active | AUC(0-t) [28]: 1730 ng·h/mL | remaining at 1 h [9]: 79.3% | Activity (JeKo-1 [10]): inactive | Activity [11]: inactive | half-life [12]: > 2.42 h | Activity [13]: 94% | remaining at 1 h [14]: 106% | Cmax [29]: 3.67 µM | Activity [30]: Active | DC50 [15]: 2.8 nM | Activity [15]: Dose-dependent-effect | Activity [16]: Dose-dependent-effect | DC50 [17]: 4.3 nM | Activity [18]: inactive | Activity (JeKo-1 [19]): inactive | CLint scaled [20]: < 8.6 mL/min/kg | IC50 [21]: 9.9 nM | IC50 [22]: 18.2 nM | Activity [31]: Non-toxic | Activity [23]: 100%
